Molecules are shown by their SMILES.

The experiment deals with Male CD-1 mice. Put plainly: mouse forced swim test, immobility time 24 h after treatment. In kind it is in vivo. To be noted: for Holm-Šídák post-hoc comparison, group compared vehicle (p, immobility time) / minimum effective dose to reduce immobility time in the forced swim test / doses at which immobility time in the forced swim test was reduced (effective doses): 24 h after treatment; for minimum effective dose to reduce immobility time in the forced swim test / shape of dose response in the forced swim test / doses at which immobility time in the forced swim test was reduced (effective doses): male mice, i.p.; for shape of dose response in the forced swim test: tested range up to 100 mg/kg; for doses at which immobility time in the forced swim test was reduced (effective doses): relative to vehicle. On the procedure:
Animals: Male CD-1 mice (Charles Rivers Laboratories; Raleigh, NC, USA), 8-11 weeks old at the time of testing, were habituated to the University of Maryland (Baltimore, MD, USA) animal facility for at least one week prior to testing. Mice were group housed in cages of 4-5 per cage with a constant 12-hour light cycle (lights on/off at 07:00/19:00). Food and water were available ad libitum. All experiments were performed during the light phase. All studies were approved by the University of Maryland School of Medicine Animal Care and Use Committee and conducted in accordance with the National Institutes of Health Guide for the Care and Use of Laboratory Animals.
Drugs: (2R,6R)-HNK hydrochloride, (2S,6S)-HNK hydrochloride, (2R,6S)-HNK, and (2S,6R)-HNK were synthesized and characterized (molecular structures were confirmed via ^1H and ^13C NMR, the absolute and relative stereochemistry was assigned by x-ray crystallography, and the purity was determined via LC/MS) at the National Center for Advancing Translation Sciences (National Institutes of Health, Rockville, MD, USA). The synthesis and characterization of (2R,6R)-HNK hydrochloride, (2S,6S)-HNK hydrochloride, (2R,6S)-HNK, and (2S,6R)-HNK were performed as previously described in Morris et al., 2017, Org. Lett. 19:4572-4575, which is incorporated by reference herein in its entirety. (5R)-methyl-(2R,6R)-HNK was obtained from Organix Inc. (Woburn, MA, USA). (5R)-methyl-(2R,6R)-HNK can be synthesized according to the method described in Example 1. All compounds were dissolved in 20% (w/v) cyclodextrin (Sigma Aldrich, USA) in saline and administered intraperitoneally (i.p.) in a volume of 7.5 ml/kg.
Forced swim test: Compounds were tested in separate cohorts of male mice (n=10-18/group; only male mice were tested to control for sex-dependent differences in pharmacokinetics and brain levels) and all injections were performed by a experimenter. (2R,6R)-HNK, (2S,6S)-HNK, (2R,6S)-HNK, (2S,6R)-HNK were administered at the doses of 1, 3, 10, 30, and 100 mg/kg. (5R)-methyl-(2R,6R)-HNK was administered at the doses of 0.3, 1, 3, and 10 mg/kg. (2R,6S)-HNK and (2S,6R)-HNK were dosed as a free base whereas (2R,6R)-HNK and (2S,6S)-HNK, and (5R)-methyl-(2R,6R)-HNK were dosed as a hydrochloride salt. Vehicle and (2R,6R)-HNK (30 mg/kg) were included as controls in each cohort. Twenty-four h after treatment, mice were tested in the forced swim test, according to previously described methods. Injections were performed by a experimenter. Briefly, mice were placed into a clear Plexiglass cylinder (20 cm height×15 cm diameter) filled to a depth of 15 cm with water (23±1° C.) and subjected to a 6-min swim session. Swim sessions were recorded using a digital video camera. The time spent immobile (defined as passive floating with no movements other than those necessary to keep the head above water) was scored during the final 4 min of the session. Sessions were scored by a trained experimenter blind to the treatment groups.
Statistical analysis: All experiments and analyses were performed in a blinded and randomized manner. All injections were performed by a experimenter. Statistical analyses were performed using GraphPad Prism software (v8; GraphPad Software, Inc.). All statistical tests were two-tailed, and significance was assigned at p<0.05. Differences in immobility time were analyzed via one-way ANOVA followed by Holm-Šídák post-hoc comparison (with all groups compared to saline control group) when significance was reached. Significant results are indicated with asterisks in the figures (*p<0.05, **p<0.01, ***p<0.001). Data are presented as the mean±standard error of the mean (SEM).

Take `N[C@@]1(c2ccccc2Cl)CCC[C@@H](O)C1=O` [(2R,6R)-HNK, (2R,6R)-hydroxynorketamine]: the “minimum effective dose to reduce immobility time in the forced swim test” value stood at 10 mg/kg and the “shape of dose response in the forced swim test” value (from here on “shape of dose response”) is “did not demonstrate U-shaped dose responses”. Moreover, the “Holm-Šídák post-hoc comparison, group compared vehicle (p, immobility time)” value (1 mg/kg i.p.) is given as “p = 0.2332”. Also, the “Holm-Šídák post-hoc comparison, group compared vehicle (p, immobility time)” value (3 mg/kg i.p.) is on record as “p = 0.2631”. Further, the “Holm-Šídák post-hoc comparison, group compared vehicle (p, immobility time)” value (10 mg/kg i.p.) is recorded as “p = 0.0428”. For the same molecule, where the note is “100 mg/kg i.p.”, the “Holm-Šídák post-hoc comparison, group compared vehicle (p, immobility time)” value is “p = 0.0135”.
Turning to `N[C@@]1(c2ccccc2Cl)CCC[C@H](O)C1=O` [(2R,6S)-HNK], the “minimum effective dose to reduce immobility time in the forced swim test” value is listed as 1 mg/kg, the “doses at which immobility time in the forced swim test was reduced (effective doses)” value worked out at 1 mg/kg and the “shape of dose response” value was “U-shaped dose response curves”. For the same molecule, the “Holm-Šídák post-hoc comparison, group compared vehicle (p, immobility time)” value (1 mg/kg i.p.) was “p = 0.0457”. Moreover, the “Holm-Šídák post-hoc comparison, group compared vehicle (p, immobility time)” value (3 mg/kg i.p.) is listed as “p = 0.0261”. The “Holm-Šídák post-hoc comparison, group compared vehicle (p, immobility time)” value (10 mg/kg i.p.) is “p = 0.0261”. Further, for the setting “30 mg/kg i.p.”, the “Holm-Šídák post-hoc comparison, group compared vehicle (p, immobility time)” value is given as “p = 0.4950”. Besides, the “Holm-Šídák post-hoc comparison, group compared vehicle (p, immobility time)” value (100 mg/kg i.p.) is on record as “p = 0.4950”. Further, for the setting “forced swim test”, the “fold lower doses than (2R,6R)-HNK for antidepressant-relevant behavioral effects” value is given as 10 fold.
Consider `N[C@]1(c2ccccc2Cl)CCC[C@@H](O)C1=O` [(2S,6R)-HNK], for which the “minimum effective dose to reduce immobility time in the forced swim test” value was determined as 3 mg/kg and the “shape of dose response” value is “U-shaped dose response curves”. Under “1 mg/kg i.p.”, the “Holm-Šídák post-hoc comparison, group compared vehicle (p, immobility time)” value is “p = 0.8466”. In addition, the “Holm-Šídák post-hoc comparison, group compared vehicle (p, immobility time)” value (3 mg/kg i.p.) is recorded as “p = 0.0404”. The “Holm-Šídák post-hoc comparison, group compared vehicle (p, immobility time)” value (10 mg/kg i.p.) is given as “p = 0.0404”. Besides, the “Holm-Šídák post-hoc comparison, group compared vehicle (p, immobility time)” value (30 mg/kg i.p.) was “p = 0.8466”. Besides, the “Holm-Šídák post-hoc comparison, group compared vehicle (p, immobility time)” value (100 mg/kg i.p.) is recorded as “p = 0.8466”.
As for `N[C@]1(c2ccccc2Cl)CCC[C@H](O)C1=O` [(2S,6S)-HNK, (2S,6S)-hydroxynorketamine], the “minimum effective dose to reduce immobility time in the forced swim test” value was 30 mg/kg and the “shape of dose response” value is “did not demonstrate U-shaped dose responses”. Further, the “Holm-Šídák post-hoc comparison, group compared vehicle (p, immobility time)” value (1 mg/kg i.p.) is “p = 0.9176”. Moreover, the “Holm-Šídák post-hoc comparison, group compared vehicle (p, immobility time)” value (3 mg/kg i.p.) is “p = 0.8804”. For the setting “10 mg/kg i.p.”, the “Holm-Šídák post-hoc comparison, group compared vehicle (p, immobility time)” value is “p = 0.9176”. In addition, the “Holm-Šídák post-hoc comparison, group compared vehicle (p, immobility time)” value (30 mg/kg i.p.) was “p = 0.0013”. Moreover, the “Holm-Šídák post-hoc comparison, group compared vehicle (p, immobility time)” value (100 mg/kg i.p.) is listed as “p = 0.0003”.
For `C[C@@H]1CC[C@@](N)(c2ccccc2Cl)C(=O)[C@@H]1O.Cl` [(5R)-methyl-(2R,6R)-HNK, (2R,5R,6R)-2-amino-2-(2-chlorophenyl)-6-hydroxy-5-methylcyclohexan-1-one hydrochloride], the “minimum effective dose to reduce immobility time in the forced swim test” value came out at 1 mg/kg and the “doses at which immobility time in the forced swim test was reduced (effective doses)” value lay within 1 to 10 mg/kg. For the same molecule, the “Holm-Šídák post-hoc comparison, group compared vehicle (p, immobility time)” value (0.3 mg/kg i.p.) is recorded as “p = 0.8074”. Also, where the note is “1 mg/kg i.p.”, the “Holm-Šídák post-hoc comparison, group compared vehicle (p, immobility time)” value is recorded as “p = 0.0257”. In addition, under “3 mg/kg i.p., hydrochloride”, the “Holm-Šídák post-hoc comparison, group compared vehicle (p, immobility time)” value came out at 0.06. Where the note is “3 mg/kg i.p., listed as (5R)-Me-(2R,6R)-HNK, hydrochloride”, the “Holm-Šídák post-hoc comparison, group compared vehicle (p, immobility time)” value is “p = 0.0671”. The “Holm-Šídák post-hoc comparison, group compared vehicle (p, immobility time)” value (10 mg/kg i.p.) is “p = 0.0026”.

Source of the values: patent US20230331655A1, “HYDROXYN[…] AND METHODS OF USE THEREOF” (UNIVERSITY OF MARYLAND, BALTIMORE, priority 2020, published 2023).
